Like-named read-outs stand apart in the source and are kept apart here.
Tests used:
human DGKα = biological target: T1, human DGKα (Homo sapiens, UniProt P23743); assay: DGKα LIPGLO assay (extruded liposome substrate), in vitro DGK inhibition; type: biochemical; conditions: liposome (LIPGLO) assay; read-out: DGKa LIPGLO IC50
T1 construct: TVMV protease cleavage site (C); Hexa-His (C); made in house; host or cells: Sf9 insect cells (baculovirus, Bac-to-Bac)

human DGKζ = biological target: T2, human DGKζ (Homo sapiens, UniProt Q13574); assay: DGKζ LIPGLO assay (extruded liposome substrate), in vitro DGK inhibition; type: biochemical; conditions: liposome (LIPGLO) assay; read-out: DGKz LIPGLO IC50
T2 construct: TVMV protease cleavage site (C); Hexa-His (C); made in house; host or cells: Sf9 insect cells (baculovirus, Bac-to-Bac)

naïve human CD8 T cells = assay: Human CD8 T cells IFN-γ assay; type: cell-based; conditions: normalized to 3 μM reference compound with anti-CD3 plus anti-CD28 as 100% activation, read-out: HuCD8 INFG Normalized EC50;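 also: Naïve human CD8 T cells stimulated with plate-bound anti-CD3 and soluble anti-CD28, IFN-γ in supernatant quantified by AlphaLISA and converted to pg/mL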
Human venous whole blood = assay: Human whole blood IFN-γ assay; type: cell-based; conditions: human whole blood, normalized to 3 μM reference compound with anti-CD3 plus anti-CD28 as 100% activation, read-out: INFg Whole Blood Normalized Agonist EC50;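 also: blood from healthy donors exposed to compound for 1 h before stimulation with anti-CD3 and anti-CD28 at 1 µg/mL each, IFN-γ quantified in supernatant by AlphaLISA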

T1 sequence (P23743 with tags, fused parts or gaps): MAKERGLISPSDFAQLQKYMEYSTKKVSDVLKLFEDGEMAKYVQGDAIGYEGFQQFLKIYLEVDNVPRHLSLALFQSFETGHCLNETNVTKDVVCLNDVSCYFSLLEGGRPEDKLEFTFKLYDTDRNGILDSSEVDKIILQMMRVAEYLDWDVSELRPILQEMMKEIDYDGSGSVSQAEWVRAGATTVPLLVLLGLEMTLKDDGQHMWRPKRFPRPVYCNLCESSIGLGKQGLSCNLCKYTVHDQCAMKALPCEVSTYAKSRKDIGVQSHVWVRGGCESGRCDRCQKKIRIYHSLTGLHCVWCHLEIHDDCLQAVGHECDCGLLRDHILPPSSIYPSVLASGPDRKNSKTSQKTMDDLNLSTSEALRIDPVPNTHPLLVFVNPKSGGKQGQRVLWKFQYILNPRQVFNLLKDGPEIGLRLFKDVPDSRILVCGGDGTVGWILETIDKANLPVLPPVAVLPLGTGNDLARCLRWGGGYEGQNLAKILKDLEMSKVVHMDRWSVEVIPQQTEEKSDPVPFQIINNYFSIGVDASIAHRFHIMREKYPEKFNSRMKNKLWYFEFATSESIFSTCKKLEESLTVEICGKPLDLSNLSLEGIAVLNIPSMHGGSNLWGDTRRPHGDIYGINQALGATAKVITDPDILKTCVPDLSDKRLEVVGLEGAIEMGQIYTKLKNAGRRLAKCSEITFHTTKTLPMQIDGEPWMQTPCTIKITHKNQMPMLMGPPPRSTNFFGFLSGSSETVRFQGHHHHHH
T2 sequence (Q13574 with tags, fused parts or gaps isoform Q13574-4): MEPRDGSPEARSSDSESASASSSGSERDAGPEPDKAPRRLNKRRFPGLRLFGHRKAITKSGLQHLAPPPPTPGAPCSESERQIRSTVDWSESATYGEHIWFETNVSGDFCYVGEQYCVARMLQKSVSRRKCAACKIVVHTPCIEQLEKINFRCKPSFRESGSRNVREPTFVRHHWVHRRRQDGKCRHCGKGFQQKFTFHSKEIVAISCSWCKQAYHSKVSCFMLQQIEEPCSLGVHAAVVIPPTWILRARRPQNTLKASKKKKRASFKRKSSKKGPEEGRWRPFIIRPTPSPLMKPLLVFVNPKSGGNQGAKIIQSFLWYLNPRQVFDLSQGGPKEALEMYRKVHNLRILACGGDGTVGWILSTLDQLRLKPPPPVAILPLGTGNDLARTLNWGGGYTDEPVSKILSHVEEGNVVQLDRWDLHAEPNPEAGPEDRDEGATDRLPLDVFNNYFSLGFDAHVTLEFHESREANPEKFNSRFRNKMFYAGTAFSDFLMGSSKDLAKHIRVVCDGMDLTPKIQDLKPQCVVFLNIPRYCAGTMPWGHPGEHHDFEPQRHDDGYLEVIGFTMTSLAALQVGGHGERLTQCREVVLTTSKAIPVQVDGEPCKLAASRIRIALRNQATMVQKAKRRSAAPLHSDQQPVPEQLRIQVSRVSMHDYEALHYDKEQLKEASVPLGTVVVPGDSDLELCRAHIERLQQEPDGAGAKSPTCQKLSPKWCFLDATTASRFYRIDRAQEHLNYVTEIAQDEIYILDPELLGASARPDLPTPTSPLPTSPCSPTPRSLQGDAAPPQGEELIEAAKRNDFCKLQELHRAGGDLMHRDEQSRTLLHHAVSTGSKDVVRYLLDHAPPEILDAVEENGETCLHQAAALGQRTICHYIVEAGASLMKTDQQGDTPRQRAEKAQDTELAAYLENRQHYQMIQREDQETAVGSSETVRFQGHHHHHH

Row | Compound | IC50 (human DGKα) | IC50 (human DGKζ) | EC50 (naïve human CD8 T cells; Homo sapiens, T-cell, 20 h) | EC50 (Human venous whole blood; Homo sapiens, 24 h) | EC50 (naïve human CD8 T cells) | EC50 (Human venous whole blood)
1 | Cc1ccc(C(c2cccc(C)n2)N2C[C@H](C)N(c3cc(=O)n(C)c4ccc(C#N)nc34)C[C@H]2C)cc1 (stereo partly drawn) [Example 450, 8-((2S,5R)-2,5-dimethyl-4-((6-methylpyridin-2-yl)(p-tolyl)methyl)piperazin-1-yl)-5-methyl-6-oxo-5,6-dihydro-1,5-naphthyridine-2-carbonitrile] | 2.6 µM | 0.29 µM | 0.07 µM | 0.28 µM |  | 
2 | C[C@@H]1CN(c2c(F)c(=O)n(C)c3ccc(C#N)nc23)[C@@H](C)CN1C(c1ccc(F)cc1)c1ccc(C#N)cc1 (stereo partly drawn) [Example 327, 8-((2S,5R)-4-((4-cyanophenyl)(4-fluorophenyl)methyl)-2,5-dimethylpiperazin-1-yl)-7-fluoro-5-methyl-6-oxo-5,6-dihydro-1,5-naphthyridine-2-carbonitrile] | 3.2 µM | 4.9 µM |  | 0.7 µM | 1.2 µM | 
3 | COc1ccc2c(n1)c(N1C[C@@H](C)N(C(c3ccc(F)cc3)c3ccc(F)cc3)C[C@@H]1C)cc(=O)n2C [Example 241] | 8.3 µM | 17 µM | 1.6 µM | 16 µM |  | 
4 | Cc1cccc(C)c1CN1C[C@H](C)N(c2cc(=O)n(C)c3ccc(C#N)nc23)C[C@H]1C [Example 265, 8-[(2S,5R)-4-[(2,6-dimethylphenyl)methyl]-2,5-dimethylpiperazin-1-yl]-5-methyl-6-oxo-5,6-dihydro-1,5-naphthyridine-2-carbonitrile] | 23 µM | 2.6 µM | 1.6 µM | 3.8 µM |  | 
5 | C[C@@H]1CN(c2cc(=O)n(C)c3ccc(C#N)nc23)[C@@H](C)CN1Cc1c(Cl)cccc1C#N [Example 260, 8-[(2S,5R)-4-[(2-chloro-6-cyanophenyl)methyl]-2,5-dimethylpiperazin-1-yl]-5-methyl-6-oxo-5,6-dihydro-1,5-naphthyridine-2-carbonitrile] | 3.8 µM | 1.1 µM | 0.9 µM | 4.4 µM |  | 
6 | C[C@H]1CN(C(c2ccc(F)cc2)c2ccc(F)cc2)[C@H](CN2CCOCC2)CN1c1cc(=O)n(C)c2ccc(C#N)nc12 [Example 1167, 8-((2S,5R)-4-(bis(4-fluorophenyl)methyl)-2-methyl-5-(morpholinomethyl)piperazin-1-yl)-5-methyl-6-oxo-5,6-dihydro-1,5-naphthyridine-2-carbonitrile] | 50 µM | 6.6 µM | 0.047 µM | 0.97 µM |  | 
7 | C[C@H]1CN(C(c2ccc(Cl)cc2)c2ccc(Cl)cc2)[C@H](CO)CN1c1cc(=O)n(C)c2ccc(C#N)nc12 [Example 1152] | 7.4 µM | 24 µM | 10 µM | 0.78 µM |  | 
8 | C[C@@H]1CN(c2cc(=O)n(C)c3ccc(C#N)nc23)[C@@H](C)CN1C(c1ccc(F)cc1)c1cccc2c1OC(F)(F)O2 (stereo partly drawn) [Example 668] | 120 µM | 3.1 µM |  | 0.6 µM | 0.035 µM | 
9 | C[C@@H]1CN(c2cc(=O)n(C)c3ccc(C#N)nc23)[C@@H](C)CN1C(c1ccc(Cl)cc1)c1ccc2c(c1)OC(F)(F)O2 (single isomer, unassigned) [Example 657] | 2.4 µM | 1.6 µM | 0.027 µM | 0.66 µM |  | 
10 | C[C@@H]1CN(c2cc(=O)n(C)c3ccc(C#N)nc23)[C@@H](C)CN1C(c1ccc(F)cc1)c1cccc(F)c1 (mixture of isomers) [Example 248, 8-[(2S,5R)-4-[(3-fluorophenyl)(4-fluorophenyl)methyl]-2,5-dimethylpiperazin-1-yl]-5-methyl-6-oxo-5,6-dihydro-1,5-naphthyridine-2-carbonitrile] | 1.3 µM | 0.79 µM | 0.053 µM | 0.71 µM |  | 

These reach a lower IC50 (human DGKα). Values come first.

Row | IC50 (human DGKα) | IC50 (human DGKζ) | Compound | EC50 (naïve human CD8 T cells; Homo sapiens, T-cell, 20 h) | EC50 (Human venous whole blood; Homo sapiens, 24 h) | EC50 (naïve human CD8 T cells) | EC50 (Human venous whole blood)
11 | 0.21 µM | 0.59 µM | C[C@@H]1CN(c2cc(=O)n(C)c3ccc(C#N)nc23)[C@@H](C)CN1C(c1ccc(F)cc1)c1ccc(Cl)cn1 (single isomer, unassigned) [Example 212] |  |  | 0.057 µM | 0.89 µM
12 | 0.89 µM | 1 µM | C[C@@H]1CN(c2cc(=O)n(C)c3ccc(C#N)nc23)[C@@H](C)CN1C(c1ccc(F)cc1)c1ccc(Cl)cc1 (stereo partly drawn) [Example 300, 8-[(2S,5R)-4-[(4-chlorophenyl)(4-fluorophenyl)methyl]-2,5-dimethylpiperazin-1-yl]-5-methyl-6-oxo-5,6-dihydro-1,5-naphthyridine-2-carbonitrile] | 0.021 µM | 0.12 µM |  | 
13 | 0.57 µM | 2.5 µM | Cc1ccc(C(c2ccc(C#N)cc2)N2C[C@H](C)N(c3cc(=O)n(C)c4ccc(C#N)nc34)C[C@H]2C)nc1 (single isomer, unassigned) [Example 360] | 0.13 µM |  |  | 0.31 µM
14 | 1.1 µM | 1.1 µM | C[C@@H]1CN(c2cc(=O)n(C)c3ccc(C#N)nc23)[C@@H](C)CN1C(c1ccc(Cl)cc1)c1cccc(F)n1 (single isomer, unassigned) [Example 195] |  | 1.8 µM | 0.0099 µM | 
15 | 0.13 µM | 1.9 µM | C[C@@H]1CN(c2cc(=O)n(C)c3ccc(C#N)nc23)[C@@H](C)CN1Cc1c(F)cccc1F [Example 271, 8-[(2S,5R)-4-[(2,6-difluorophenyl)methyl]-2,5-dimethylpiperazin-1-yl]-5-methyl-6-oxo-5,6-dihydro-1,5-naphthyridine-2-carbonitrile] | 0.55 µM | 1.4 µM |  | 
16 | 0.58 µM | 1.5 µM | C[C@@H]1CN(c2cc(=O)n(C)c3ccc(C#N)nc23)[C@@H](C)CN1C(c1ccccn1)c1ccc(F)cc1F (single isomer, unassigned) [Example 682] | 0.039 µM |  |  | 0.32 µM
17 | 0.69 µM | 2.5 µM | C[C@@H]1CN(c2cc(=O)n(C)c3ccc(C#N)nc23)[C@@H](C)CN1C(c1ccc(OC(F)(F)F)cc1)c1ccccn1 (single isomer, unassigned) [Example 378] | 0.0053 µM | 0.49 µM |  | 
18 | 0.23 µM | 0.34 µM | Cc1ccnc(C(c2ccc(Cl)cc2)N2C[C@H](C)N(c3cc(=O)n(C)c4ccc(C#N)nc34)C[C@H]2C)c1 (single isomer, unassigned) [Example 362] | 0.23 µM | 0.72 µM |  | 
19 | 1.2 µM | 0.75 µM | C[C@@H]1CN(c2cc(=O)n(C)c3ccc(C#N)nc23)[C@@H](C)CN1C(c1ccccc1)c1ccc(OC(F)(F)F)cc1 (single isomer, unassigned) [Example 221] | 0.042 µM |  |  | 3 µM
20 | 0.55 µM | 0.27 µM | Cc1ccc(C(c2cccc(Cl)c2)N2C[C@H](C)N(c3cc(=O)n(C)c4ccc(C#N)nc34)C[C@H]2C)nc1 (single isomer, unassigned) [Example 372] |  |  | 0.022 µM | 0.27 µM
21 | 0.39 µM | 1.1 µM | C[C@@H]1CN(c2cc(=O)n(C)c3ccc(C#N)nc23)[C@@H](C)CN1Cc1c(F)cccc1Cl [Example 261, 8-[(2S,5R)-4-[(2-chloro-6-fluorophenyl)methyl]-2,5-dimethylpiperazin-1-yl]-5-methyl-6-oxo-5,6-dihydro-1,5-naphthyridine-2-carbonitrile] | 0.23 µM | 0.88 µM |  | 

Source: patent US10669272B2, “Substituted naphthyridinone compounds useful as T cell activators” (BRISTOL-MYERS SQUIBB COMPANY, priority 2018, dated 2020)
